Measured values published in patent publication US20100240683A1, “COMBINATION THERAPY, COMPOSITION AND METHODS FOR THE TREATMENT OF CARDIOVASCULAR DISORDERS” (Syndromex Ltd., priority 2007, published 2010).

Columns and labels:
CYP3A4 = CYP3A4 (Homo sapiens, UniProt P08684); assay: in vitro
CYP2D6 = CYP2D6 (Homo sapiens, UniProt P10635); assay: in vitro
CYP2C19 [1] = target: T1, CYP2C19 (Homo sapiens, UniProt P33261); assay: Fluorimetric CYP inhibition assay, CYP2C19-CEC
CYP2C19 [2] = target: T1, CYP2C19; assay: in vitro
CYP2C8 = target: T2, CYP2C8 (Homo sapiens, UniProt P10632); assay: in vitro
T2 sequence (P10632 1-490): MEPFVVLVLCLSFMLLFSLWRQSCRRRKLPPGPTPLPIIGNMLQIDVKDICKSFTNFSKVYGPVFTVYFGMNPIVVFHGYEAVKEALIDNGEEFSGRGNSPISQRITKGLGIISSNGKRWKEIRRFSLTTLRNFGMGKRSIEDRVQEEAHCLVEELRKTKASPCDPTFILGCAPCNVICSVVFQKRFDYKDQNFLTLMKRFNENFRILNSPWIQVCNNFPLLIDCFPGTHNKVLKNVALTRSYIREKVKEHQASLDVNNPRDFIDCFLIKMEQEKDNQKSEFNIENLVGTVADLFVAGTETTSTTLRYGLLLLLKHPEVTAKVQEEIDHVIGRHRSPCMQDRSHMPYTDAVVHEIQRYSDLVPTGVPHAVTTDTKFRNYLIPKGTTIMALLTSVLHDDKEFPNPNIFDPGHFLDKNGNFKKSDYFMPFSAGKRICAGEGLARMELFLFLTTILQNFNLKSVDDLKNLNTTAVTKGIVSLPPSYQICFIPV

CYP1A2 [3] = target: T3, CYP1A2 (Homo sapiens, UniProt P05177); assay: in vitro
T3 sequence (P05177 1-516): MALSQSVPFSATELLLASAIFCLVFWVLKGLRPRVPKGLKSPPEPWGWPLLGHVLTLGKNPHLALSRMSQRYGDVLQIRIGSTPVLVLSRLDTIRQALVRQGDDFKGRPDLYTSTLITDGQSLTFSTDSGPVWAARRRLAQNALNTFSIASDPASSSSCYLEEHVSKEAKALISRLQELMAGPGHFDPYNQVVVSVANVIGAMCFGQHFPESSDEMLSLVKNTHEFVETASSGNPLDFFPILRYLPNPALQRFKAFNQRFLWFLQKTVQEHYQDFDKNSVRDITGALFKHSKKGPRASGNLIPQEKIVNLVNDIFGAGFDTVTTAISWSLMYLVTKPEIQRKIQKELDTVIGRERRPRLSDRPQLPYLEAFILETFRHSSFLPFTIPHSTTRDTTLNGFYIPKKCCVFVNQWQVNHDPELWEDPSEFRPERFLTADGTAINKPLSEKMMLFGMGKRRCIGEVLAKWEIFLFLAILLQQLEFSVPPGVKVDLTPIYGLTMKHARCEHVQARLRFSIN

CYP1A2 [4] = target: T3, CYP1A2; assay: Fluorimetric CYP inhibition assay, CYP1A2-CEC
[5] = tested on: dyslipidemic non-diabetic patients; assay: Hypolipidemic effect of M16ββ in dyslipidemic non-diabetic patients; format: in vivo, human; conditions: p.o. 200 mg/day to 800 mg/day
Method: Eight dyslipidemic non-diabetic patients were subjected to 4-5 weeks maintenance period on placebo followed by a period of 3-5 months of treatment p.o. with increasing M16ββ doses ranging from 200 mg/day to 800 mg/day.

CYP2C9 = CYP2C9 (Homo sapiens, UniProt P11712); assay: in vitro
CYP2C9, sequence (P11712 whole entry): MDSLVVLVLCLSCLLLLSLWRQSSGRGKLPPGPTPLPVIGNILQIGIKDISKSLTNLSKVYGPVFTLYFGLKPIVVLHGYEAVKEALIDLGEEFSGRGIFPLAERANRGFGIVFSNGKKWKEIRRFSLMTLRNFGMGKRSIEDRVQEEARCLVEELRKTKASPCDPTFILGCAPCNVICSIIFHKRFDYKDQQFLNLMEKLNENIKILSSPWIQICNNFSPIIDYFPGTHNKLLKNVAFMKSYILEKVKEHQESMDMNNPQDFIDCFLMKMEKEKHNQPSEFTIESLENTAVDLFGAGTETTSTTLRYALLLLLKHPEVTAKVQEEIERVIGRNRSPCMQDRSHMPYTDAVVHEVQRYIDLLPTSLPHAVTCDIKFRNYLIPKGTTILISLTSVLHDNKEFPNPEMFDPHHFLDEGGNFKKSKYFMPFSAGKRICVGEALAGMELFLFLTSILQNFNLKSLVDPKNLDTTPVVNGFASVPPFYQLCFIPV

CYP2D6, sequence (P10635 whole entry): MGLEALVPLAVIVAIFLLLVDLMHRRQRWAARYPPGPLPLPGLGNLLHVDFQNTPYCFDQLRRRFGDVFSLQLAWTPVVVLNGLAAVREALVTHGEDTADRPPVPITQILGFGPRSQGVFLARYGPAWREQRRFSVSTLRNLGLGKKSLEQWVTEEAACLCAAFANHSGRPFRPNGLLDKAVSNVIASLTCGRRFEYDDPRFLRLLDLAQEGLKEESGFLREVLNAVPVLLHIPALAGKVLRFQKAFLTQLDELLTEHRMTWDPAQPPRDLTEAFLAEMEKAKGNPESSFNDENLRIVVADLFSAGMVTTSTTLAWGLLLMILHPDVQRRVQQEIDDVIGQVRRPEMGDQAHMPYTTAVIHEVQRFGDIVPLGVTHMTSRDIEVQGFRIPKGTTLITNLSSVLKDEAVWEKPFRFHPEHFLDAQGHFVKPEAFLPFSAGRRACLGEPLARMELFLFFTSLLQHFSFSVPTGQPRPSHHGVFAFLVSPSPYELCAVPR
T1 sequence (P33261 whole entry): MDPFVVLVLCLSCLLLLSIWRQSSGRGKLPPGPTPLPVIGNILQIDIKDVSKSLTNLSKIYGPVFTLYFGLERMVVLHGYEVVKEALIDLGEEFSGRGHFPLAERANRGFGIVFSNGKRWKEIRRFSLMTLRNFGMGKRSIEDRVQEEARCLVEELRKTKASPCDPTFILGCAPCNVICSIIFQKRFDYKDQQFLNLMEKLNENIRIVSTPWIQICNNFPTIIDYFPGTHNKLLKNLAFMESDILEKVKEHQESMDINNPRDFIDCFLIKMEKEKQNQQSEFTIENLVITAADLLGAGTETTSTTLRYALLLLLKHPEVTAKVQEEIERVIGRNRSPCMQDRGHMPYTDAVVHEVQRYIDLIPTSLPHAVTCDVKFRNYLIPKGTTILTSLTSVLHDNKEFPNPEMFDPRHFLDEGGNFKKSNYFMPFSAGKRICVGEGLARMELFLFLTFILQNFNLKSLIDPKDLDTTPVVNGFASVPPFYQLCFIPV
CYP3A4, sequence (P08684 whole entry): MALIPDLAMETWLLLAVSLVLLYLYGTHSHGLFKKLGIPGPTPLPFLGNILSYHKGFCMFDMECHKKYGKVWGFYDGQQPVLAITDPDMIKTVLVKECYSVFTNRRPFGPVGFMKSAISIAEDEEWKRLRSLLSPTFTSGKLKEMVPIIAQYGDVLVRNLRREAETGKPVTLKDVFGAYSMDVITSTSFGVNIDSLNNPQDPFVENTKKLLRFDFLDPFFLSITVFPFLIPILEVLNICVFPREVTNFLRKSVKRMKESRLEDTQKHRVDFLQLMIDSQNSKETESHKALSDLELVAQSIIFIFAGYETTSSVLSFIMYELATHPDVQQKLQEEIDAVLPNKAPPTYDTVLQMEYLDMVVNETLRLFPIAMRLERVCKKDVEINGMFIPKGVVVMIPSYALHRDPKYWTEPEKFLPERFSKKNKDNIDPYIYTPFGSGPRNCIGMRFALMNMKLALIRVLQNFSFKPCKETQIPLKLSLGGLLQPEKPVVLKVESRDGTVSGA

In the case of `CC(C)(CCCCCCCCCCC(C)(C)CC(=O)O)CC(=O)O` [M16ββ, 3,3,14,14-tetramethylhexadecane-1,16-dioic acid], the inhibition at 0.05 μM (CYP3A4; % Inhibition (set 1)) is reported as 0%, the inhibition at 0.41 μM (CYP3A4; % Inhibition (set 1)) is reported as 0% and the inhibition at 0.41 μM (CYP3A4; % Inhibition (set 2)) is reported as 0%. The inhibition at 100 μM (CYP3A4; % Inhibition (set 2)) was 15%, the inhibition at 0.05 μM (CYP2D6; % Inhibition (set 1)) was 0% and the inhibition at 0.41 μM (CYP2D6; % Inhibition (set 1)) was 0%. It also gave an inhibition at 1.23 μM (CYP2D6; % Inhibition (set 1)) of 0%, an inhibition at 3.7 μM (CYP2D6; % Inhibition (set 1)) of 0% and an inhibition at 11.11 μM (CYP2D6; % Inhibition (set 1)) of 10%. The inhibition at 33.33 μM (CYP2D6; % Inhibition (set 1)) was 17%, the inhibition at 100 μM (CYP2D6; % Inhibition (set 1)) was 10% and the inhibition at 0.05 μM (CYP2D6; % Inhibition (set 2)) was 0%. For the same compound, the inhibition at 0.41 μM (CYP2D6; % Inhibition (set 2)) was 0%, the inhibition at 1.23 μM (CYP2D6; % Inhibition (set 2)) was 0% and the inhibition at 3.7 μM (CYP2D6; % Inhibition (set 2)) was 1%. The inhibition at 11.11 μM (CYP2D6; % Inhibition (set 2)) was 6%, the inhibition at 33.33 μM (CYP2D6; % Inhibition (set 2)) was 14% and the inhibition at 100 μM (CYP2D6; % Inhibition (set 2)) was 19%. For the same compound, the IC50 (CYP2C19 [1]) was over 100 µM, the inhibition at 0.05 μM (CYP2C19 [2]; % Inhibition (set 1)) was 0% and the inhibition at 0.41 μM (CYP2C19 [2]; % Inhibition (set 1)) was 5%. It also gave an inhibition at 1.23 μM (CYP2C19 [2]; % Inhibition (set 1)) of 4%, an inhibition at 3.7 μM (CYP2C19 [2]; % Inhibition (set 1)) of 0% and an inhibition at 11.11 μM (CYP2C19 [2]; % Inhibition (set 1)) of 0%. The inhibition at 33.33 μM (CYP2C19 [2]; % Inhibition (set 1)) was 1%, the inhibition at 100 μM (CYP2C19 [2]; % Inhibition (set 1)) was 21% and the inhibition at 0.05 μM (CYP2C19 [2]; % Inhibition (set 2)) was 0%. For the same compound, the inhibition at 0.41 μM (CYP2C19 [2]; % Inhibition (set 2)) was 1%, the inhibition at 1.23 μM (CYP2C19 [2]; % Inhibition (set 2)) was 0% and the inhibition at 3.7 μM (CYP2C19 [2]; % Inhibition (set 2)) was 0%. For the same compound, the inhibition at 11.11 μM (CYP2C19 [2]; % Inhibition (set 2)) was 0%, the inhibition at 33.33 μM (CYP2C19 [2]; % Inhibition (set 2)) was 1% and the inhibition at 100 μM (CYP2C19 [2]; % Inhibition (set 2)) was 7%. For the same compound, the inhibition at 0.05 μM (CYP2C8; % Inhibition (set 1)) was 8%, the inhibition at 0.41 μM (CYP2C8; % Inhibition (set 1)) was 7% and the inhibition at 1.23 μM (CYP2C8; % Inhibition (set 1)) was 4%. The inhibition at 3.7 μM (CYP2C8; % Inhibition (set 1)) was 7%, the inhibition at 11.11 μM (CYP2C8; % Inhibition (set 1)) was 15% and the inhibition at 33.33 μM (CYP2C8; % Inhibition (set 1)) was 22%. For the same compound, the inhibition at 100 μM (CYP2C8; % Inhibition (set 1)) was 46%, the inhibition at 0.05 μM (CYP2C8; % Inhibition (set 2)) was 0% and the inhibition at 0.41 μM (CYP2C8; % Inhibition (set 2)) was 0%. The inhibition at 1.23 μM (CYP2C8; % Inhibition (set 2)) was 0%, the inhibition at 3.7 μM (CYP2C8; % Inhibition (set 2)) was 0% and the inhibition at 11.11 μM (CYP2C8; % Inhibition (set 2)) was 9%. For the same compound, the inhibition at 33.33 μM (CYP2C8; % Inhibition (set 2)) was 23%, the inhibition at 100 μM (CYP2C8; % Inhibition (set 2)) was 46% and the inhibition at 0.05 μM (CYP1A2 [3]; % Inhibition (set 1)) was 0%. It also gave an inhibition at 0.41 μM (CYP1A2 [3]; % Inhibition (set 1)) of 0%, an inhibition at 1.23 μM (CYP1A2 [3]; % Inhibition (set 1)) of 0% and an inhibition at 3.7 μM (CYP1A2 [3]; % Inhibition (set 1)) of 0%. The inhibition at 11.11 μM (CYP1A2 [3]; % Inhibition (set 1)) was 4%, the inhibition at 33.33 μM (CYP1A2 [3]; % Inhibition (set 1)) was 3% and the inhibition at 100 μM (CYP1A2 [3]; % Inhibition (set 1)) was 1%. For the same compound, the inhibition at 0.05 μM (CYP1A2 [3]; % Inhibition (set 2)) was 0%, the inhibition at 0.41 μM (CYP1A2 [3]; % Inhibition (set 2)) was 0% and the inhibition at 1.23 μM (CYP1A2 [3]; % Inhibition (set 2)) was 0%. The inhibition at 3.7 μM (CYP1A2 [3]; % Inhibition (set 2)) was 0%, the inhibition at 11.11 μM (CYP1A2 [3]; % Inhibition (set 2)) was 0% and the inhibition at 33.33 μM (CYP1A2 [3]; % Inhibition (set 2)) was 1%. The inhibition at 100 μM (CYP1A2 [3]; % Inhibition (set 2)) was 4%, the IC50 (CYP1A2 [4]) was over 100 µM and the “time into treatment at which hypolipidemic effect was observed” value [5] was “less than 1 month”. The “Plasma LDL-C” value ([5]; 3-5 months) was “remained unaffected”, the “decrease in plasma triglycerides (mean)” value ([5]; 3-5 months) was 55% and the “increase in HDL-C” value ([5]; 3-5 months) was 13%. For the same compound, the plasma fibrinogen ([5]; 3-5 months) was “decrease”, the tolerability ([5]; 3-5 months) was “well tolerated in all dosages” and the inhibition at 0.05 μM (CYP2C9; % Inhibition (set 1)) was 0%. It also gave an inhibition at 0.41 μM (CYP2C9; % Inhibition (set 1)) of 0%, an inhibition at 1.23 μM (CYP2C9; % Inhibition (set 1)) of 3% and an inhibition at 3.7 μM (CYP2C9; % Inhibition (set 1)) of 13%. It also gave an inhibition at 11.11 μM (CYP2C9; % Inhibition (set 1)) of 19%, an inhibition at 33.33 μM (CYP2C9; % Inhibition (set 1)) of 34% and an inhibition at 100 μM (CYP2C9; % Inhibition (set 1)) of 50%. The inhibition at 0.05 μM (CYP2C9; % Inhibition (set 2)) was 0%, the inhibition at 0.41 μM (CYP2C9; % Inhibition (set 2)) was 3% and the inhibition at 1.23 μM (CYP2C9; % Inhibition (set 2)) was 10%. It also gave an inhibition at 3.7 μM (CYP2C9; % Inhibition (set 2)) of 8%, an inhibition at 11.11 μM (CYP2C9; % Inhibition (set 2)) of 18% and an inhibition at 33.33 μM (CYP2C9; % Inhibition (set 2)) of 26%. For the same compound, the inhibition at 100 μM (CYP2C9; % Inhibition (set 2)) was 44%.
